Common to all, as to test: level (log10 ratio to DMSO vehicle control); higher = higher biomarker level / cell amount than vehicle control
Compound in assay [1]: C=CC(=O)OCCC(F)(F)C(F)(F)C(F)(F)C(F)(F)C(F)(F)C(F)(F)C(F)(F)C(F)(F)F [8:2 Fluorotelomer acrylate]
The settings on record: in DMSO. An outline of the steps: (§1)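 After a 1 h pretreatment with test substances, BioMAP Diversity Plus human primary cell co-cultures were stimulated with cytokines or activators and incubated 24 h (MyoF 48 h; BT 72 h, or 6 d for secreted IgG). Biomarkers were quantified by ELISA, cell amount by sulforhodamine B, and PBMC viability/proliferation by Alamar Blue. Each well was expressed relative to the mean of 8 same-plate DMSO wells, log10 transformed, and blinded duplicates were averaged.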

Compound in assay [2]: C=CC(=O)OCC(F)(F)C(F)(F)C(F)(F)C(F)(F)C(F)(F)C(F)(F)C(F)(F)C(F)F [1H,1H,9H-Perfluorononyl acrylate]
To be noted: in DMSO. The method in brief: as §1

Compound in assay [3]: OCCC(F)(F)C(F)(F)C(F)(F)C(F)(F)C(F)(F)C(F)(F)C(F)(F)C(F)(F)F [8:2 Fluorotelomer alcohol]
The settings on record: 6700 nM; in DMSO. An outline of the steps: as §1

Compound in assay [4]: FC(F)(F)C(F)(F)C(F)(F)C(F)(F)CCI [1H,1H,2H,2H-Perfluorohexyl iodide]
The settings on record: in DMSO. An outline of the steps: as §1

Compound in assay [5]: O=C(O)C(F)(F)C(F)(F)C(F)(F)C(F)(F)C(F)(F)C(F)(F)C(F)(F)F [Ammonium perfluorooctanoate]
The settings on record: in DMSO. An outline of the steps: as §1

Compound in assay [6]: C=C(C)C(=O)OCC(F)(F)C(F)(F)C(F)(F)F [2,2,3,3,4,4,4-Heptafluorobutyl methacrylate]
The settings on record: in DMSO. An outline of the steps: as §1

Compound in assay [7]: OCCCC(F)(F)C(F)(F)C(F)(F)C(F)(F)C(F)(F)C(F)(F)C(F)(F)C(F)(F)F [3-(Perfluorooctyl)propanol]
The settings on record: 6700 nM; in DMSO. The method in brief:
as §1

Compound in assay [8]: C=CC(=O)OCC(F)(F)C(F)(F)C(F)(F)C(F)(F)COC(=O)C=C [1H,1H,6H,6H-Perfluorohexane-1,6-diol diacrylate]
The settings on record: 6700 nM; in DMSO. An outline of the steps:
as §1

± gives the standard deviation of the averaged measurements.

The results in this text go back to the supplement of paper PMC10331698.

In the case of KF3CT:SRB, the “level (log10)” value in assay [1] (6700 nM) was -0.0005 ± 0.005; in assay [1] (20000 nM), 0.002 ± 0.0085; in assay [1] (60000 nM), 0.0105 ± 0.013; in assay [2] (6700 nM) it was 0.003 ± 0.0014; in assay [2] (20000 nM) it was -0.002 ± 0.0085; in assay [2] (60000 nM), 0.0045 ± 0.018. For the same test system, the “level (log10)” value was 0.0075 ± 0.0064 in assay [3]; -0.013 ± 0.0099 in assay [4] (6700 nM); -0.01 ± 0.013 in assay [4] (20000 nM); 0.0035 ± 0.015 in assay [4] (60000 nM); -0.0125 ± 0.0035 in assay [5] (6700 nM); -0.0115 ± 0.0021 in assay [5] (20000 nM). The “level (log10)” value in assay [5] (60000 nM) was -0.0195 ± 0.0021; in assay [6] (6700 nM), 0.0025 ± 0.0021; in assay [6] (20000 nM), 0.0045 ± 0.011; in assay [6] (60000 nM), -0.0075 ± 0.00071; in assay [7] it was -0.053; in assay [8], 0.003 ± 0.0057.
For the test system BE3C:SRB, the “level (log10)” value in assay [1] (6700 nM) was -0.0045 ± 0.0021; in assay [1] (20000 nM), -0.0045 ± 0.0064; in assay [1] (60000 nM) it was 0.006 ± 0.018; in assay [2] (6700 nM), -0.004; in assay [2] (20000 nM) it was 0.0005 ± 0.005; in assay [2] (60000 nM), 0.001 ± 0.016. Further, the “level (log10)” value in assay [3] was -0.0075 ± 0.0021; in assay [4] (6700 nM), -0.003 ± 0.0028; in assay [4] (20000 nM) it was -0.0035 ± 0.00071; in assay [4] (60000 nM), 0.002 ± 0.011; in assay [5] (6700 nM), -0.0045 ± 0.005; in assay [5] (20000 nM) it was -0.003. For the same test system, the “level (log10)” value is -0.0145 ± 0.0078 in assay [5] (60000 nM); -0.003 ± 0.011 in assay [6] (6700 nM); -0.0095 ± 0.0064 in assay [6] (20000 nM); -0.001 ± 0.0071 in assay [6] (60000 nM); -0.002 ± 0.0028 in assay [7]; -0.006 ± 0.0028 in assay [8].
In the case of lMphg:M-CSF, the “level (log10)” value in assay [1] (6700 nM) was -0.0195 ± 0.042; in assay [1] (20000 nM), -0.013 ± 0.014; in assay [1] (60000 nM) it was -0.003 ± 0.016; in assay [2] (6700 nM), 0.0155 ± 0.04; in assay [2] (20000 nM) it was -0.0225 ± 0.018; in assay [2] (60000 nM), -0.042 ± 0.025. Further, the “level (log10)” value in assay [3] was -0.0345 ± 0.021; in assay [4] (6700 nM), -0.018 ± 0.017; in assay [4] (20000 nM), -0.0275 ± 0.018; in assay [4] (60000 nM), 0.0185 ± 0.0035; in assay [5] (6700 nM), -0.018 ± 0.0099; in assay [5] (20000 nM), -0.018 ± 0.037. In addition, the “level (log10)” value is 0.0055 ± 0.0021 in assay [5] (60000 nM); -0.011 ± 0.0085 in assay [6] (6700 nM); -0.02 ± 0.02 in assay [6] (20000 nM); -0.021 ± 0.0071 in assay [6] (60000 nM); -0.0255 ± 0.00071 in assay [7]; -0.0105 ± 0.015 in assay [8].
On to HDF3CGF:CXCL10/IP-10, for which the “level (log10)” value in assay [1] (6700 nM) is 0.01 ± 0.021; in assay [1] (20000 nM), 0.003 ± 0.037; in assay [1] (60000 nM), 0.01 ± 0.028; in assay [2] (6700 nM), -0.0105 ± 0.0064; in assay [2] (20000 nM) it was -0.041 ± 0.048; in assay [2] (60000 nM), -0.15 ± 0.096. In addition, the “level (log10)” value in assay [3] was -0.039 ± 0.0085; in assay [4] (6700 nM) it was 0.0045 ± 0.035; in assay [4] (20000 nM), -0.0155 ± 0.0064; in assay [4] (60000 nM) it was -0.069 ± 0.02; in assay [5] (6700 nM) it was -0.015 ± 0.0042; in assay [5] (20000 nM) it was -0.023 ± 0.016. Besides, the “level (log10)” value is -0.0495 ± 0.04 in assay [5] (60000 nM); -0.017 ± 0.0071 in assay [6] (6700 nM); -0.021 ± 0.0071 in assay [6] (20000 nM); -0.024 ± 0.016 in assay [6] (60000 nM); -0.275 ± 0.057 in assay [7]; -0.492 ± 0.023 in assay [8].
In the case of lMphg:CD69, the “level (log10)” value in assay [1] (6700 nM) was -0.054 ± 0.017; in assay [1] (20000 nM), -0.0565 ± 0.023; in assay [1] (60000 nM), 0.002 ± 0.079; in assay [2] (6700 nM), -0.048 ± 0.0028; in assay [2] (20000 nM) it was -0.0265 ± 0.025; in assay [2] (60000 nM) it was -0.0255 ± 0.03. Besides, the “level (log10)” value in assay [3] is -0.086 ± 0.035; in assay [4] (6700 nM), -0.019; in assay [4] (20000 nM) it was -0.013 ± 0.013; in assay [4] (60000 nM), 0.043 ± 0.021; in assay [5] (6700 nM), -0.0285 ± 0.018; in assay [5] (20000 nM), -0.0185 ± 0.028. Also, the “level (log10)” value was -0.0715 ± 0.0064 in assay [5] (60000 nM); -0.0035 ± 0.044 in assay [6] (6700 nM); -0.0335 ± 0.025 in assay [6] (20000 nM); -0.0615 ± 0.047 in assay [6] (60000 nM); 0.018 ± 0.04 in assay [7]; -0.06 ± 0.0042 in assay [8].
On to KF3CT:TIMP-2, for which the “level (log10)” value in assay [1] (6700 nM) was -0.0125 ± 0.037; in assay [1] (20000 nM) it was -0.02; in assay [1] (60000 nM), 0.016 ± 0.013; in assay [2] (6700 nM), -0.0125 ± 0.046; in assay [2] (20000 nM), -0.022 ± 0.0085; in assay [2] (60000 nM), -0.042 ± 0.011. Besides, the “level (log10)” value was -0.0175 ± 0.026 in assay [3]; -0.0185 ± 0.005 in assay [4] (6700 nM); -0.009 ± 0.018 in assay [4] (20000 nM); -0.008 ± 0.02 in assay [4] (60000 nM); -0.006 ± 0.0028 in assay [5] (6700 nM); -0.011 ± 0.018 in assay [5] (20000 nM). Also, the “level (log10)” value in assay [5] (60000 nM) is 0.0065 ± 0.025; in assay [6] (6700 nM), -0.004 ± 0.016; in assay [6] (20000 nM) it was -0.0165 ± 0.00071; in assay [6] (60000 nM) it was -0.0035 ± 0.012; in assay [7] it was -0.0255 ± 0.063; in assay [8], -0.088 ± 0.0057.
As for HDF3CGF:Collagen III, the “level (log10)” value in assay [1] (6700 nM) is 0.032 ± 0.024; in assay [1] (20000 nM) it was 0.0315 ± 0.019; in assay [1] (60000 nM), 0.086 ± 0.014; in assay [2] (6700 nM) it was -0.096 ± 0.03; in assay [2] (20000 nM), -0.102 ± 0.022; in assay [2] (60000 nM) it was -0.124 ± 0.016. In addition, the “level (log10)” value in assay [3] is -0.0025 ± 0.032; in assay [4] (6700 nM), -0.0145 ± 0.021; in assay [4] (20000 nM) it was -0.0185 ± 0.052; in assay [4] (60000 nM), -0.035 ± 0.047; in assay [5] (6700 nM), 0.0555 ± 0.032; in assay [5] (20000 nM) it was -0.1 ± 0.048. The “level (log10)” value is -0.142 ± 0.0021 in assay [5] (60000 nM); -0.0545 ± 0.1 in assay [6] (6700 nM); -0.075 ± 0.031 in assay [6] (20000 nM); -0.034 ± 0.048 in assay [6] (60000 nM); -0.12 ± 0.0092 in assay [7]; 0.105 ± 0.11 in assay [8].
Regarding KF3CT:CCL2/MCP-1, the “level (log10)” value in assay [1] (6700 nM) was -0.0265 ± 0.042; in assay [1] (20000 nM), -0.0415 ± 0.0092; in assay [1] (60000 nM), -0.0725 ± 0.04; in assay [2] (6700 nM), -0.0075 ± 0.043; in assay [2] (20000 nM), -0.057 ± 0.024; in assay [2] (60000 nM) it was -0.137 ± 0.085. Moreover, the “level (log10)” value is -0.0165 ± 0.025 in assay [3]; -0.0255 ± 0.026 in assay [4] (6700 nM); -0.015 ± 0.04 in assay [4] (20000 nM); -0.004 ± 0.047 in assay [4] (60000 nM); 0.011 ± 0.024 in assay [5] (6700 nM); -0.0245 ± 0.036 in assay [5] (20000 nM). Further, the “level (log10)” value in assay [5] (60000 nM) was -0.119 ± 0.0064; in assay [6] (6700 nM) it was 0.026 ± 0.014; in assay [6] (20000 nM) it was 0.008 ± 0.0085; in assay [6] (60000 nM) it was -0.0155 ± 0.0035; in assay [7] it was -0.077 ± 0.025; in assay [8], -0.101 ± 0.045.
